{
  "source": "patent US20100069450A1",
  "about": "“SALT OF 3-BENZYL-2-METHYL-2,3,3A,4,5,6,7, 7A- OCTAHYDROBENZO[D]ISOXAZOL-4-ONE” (ABIOGEN PHARMA S.P.A, priority 2006, published 2010)",
  "key": {"[1]": {"assay": "Stability test of BTG 1640 salts: purity under preservation conditions", "format": "physicochemical", "experimental": "Samples of 100 mg each of BTG 1640 hydrochloride were subjected to the following preservation conditions:\nThe purities were then analyzed periodically, initially every three months, in order to underline possible variations.\nSamples of 100 mg each of BTG 1640 fumarate prepared according to example 1C were subjected to the following preservation conditions:\nQuarterly and in an overall period of nine months its purity was then analyzed in order to underline possible variations. The results in the following Table 3 were obtained:\nAs comparison other salts of BTG 1640 were prepared, and exactly: • BTG 1640 methanesulphonate • BTG 1640 maleate • BTG 1640 succinate following the procedure indicated in example 1 and substituting methanesolphonic, maleic and succinic acids for fumaric acid.\nThe stabilities were then evaluated by subjecting samples of 100 mg of each salt to the following analogous preservation conditions:\nQuarterly and in an overall period of nine months their purity was then analyzed in order to underline possible variations.\nThe obtained results, together with those obtained in Example 2 for hydrochloride, in Example 3 for fumarate in order to make easier the comparison, were in Table 5 and represented in FIGS. 5-8."}, "[2]": {"assay": "Stability test of BTG 1640 salts: evaluation of total impurities", "format": "physicochemical", "experimental": "Contemporaneously, the impurity analysis in the conditions a)-d) of T/% RH were carried out.\nAs a confirmation of such evidence, a test for the evaluation of the impurity percentage of the sample subjected to the same conditions a)-d) of T/% RH was parallely carried out. The experimental values in Table 4 were obtained."}, "[3]": {"assay": "Absorption kinetic: plasma concentration of BTG 1640 after oral gavage", "format": "in vivo, rats Sprague Dawley", "settings": "rats, oral gavage 10 mg/kg (as free base)", "experimental": "Absorption extent and rate of molecule BTG 1640 in its forms of fumarate and hydrochloride salts were evaluated.\nWith this intent, the two salts were dispersed in an aqueous suspension of arabic gum at 5% thus obtaining two formulations, each one orally administered through oesophageous gavage at dose of 10 mg/kg (expressed as free base of BTG 1640) to five rats Sprague Dawley.\nPlasma concentration of molecule BTG 1640 was determined at different time points."}, "female CD-1 mice": {"test_system": "female CD-1 mice", "assay": "Acute oral toxicity", "format": "in vivo", "settings": "female CD-1 mice, oral gavage 2000 mg/kg bw", "experimental": "Acute oral toxicity of salts hydrochloride and fumarate of BTG-1640 was evaluated.\nThe two salts were dispersed in an aqueous suspension, thus obtaining two formulations, each one orally administered through oesophageous gavage at dose of 2000 mg/kg bw (expressed as free base of BTG 1640) to one of two groups comprising three female CD-1 mice per group.\nThe observation lasted 14 days."}, "[4]": {"settings": "T = 25° C., humidity 60% RH, time 0"}, "[5]": {"settings": "T = 25° C., humidity 60% RH, time 3 (months)"}, "[6]": {"settings": "T = 25° C., humidity 60% RH, time 6 (months)"}, "[7]": {"settings": "T = 25° C., humidity 60% RH, time 9 (months)"}, "[8]": {"settings": "T = 25° C., humidity 60% RH, time 12 (months)"}, "[9]": {"settings": "T = 25° C., humidity 60% RH, time 18 (months)"}, "[10]": {"settings": "T = 25° C., humidity 60% RH, time 24 (months)"}, "[11]": {"settings": "T = 25° C., humidity 60% RH, time 36 (months)"}, "[12]": {"settings": "T = 30° C., humidity 65% RH, time 0"}, "[13]": {"settings": "T = 30° C., humidity 65% RH, time 3 (months)"}, "[14]": {"settings": "T = 30° C., humidity 65% RH, time 6 (months)"}, "[15]": {"settings": "T = 30° C., humidity 65% RH, time 9 (months)"}, "[16]": {"settings": "T = 30° C., humidity 65% RH, time 12 (months)"}, "[17]": {"settings": "T = 40° C., humidity 75% RH, time 0"}, "[18]": {"settings": "T = 40° C., humidity 75% RH, time 3 (months)"}, "[19]": {"settings": "T = 40° C., humidity 75% RH, time 6 (months)"}},
  "data": [
    {"compound": "CN1OC2CCCC(=O)C2C1Cc1ccccc1.Cl", "note": "(stereo not shown) [BTG 1640 hydrochloride]", "values": [
      {"measurement": "Purity %", "setting": "[1]; T = 5° C., time 0", "value": 99.3, "unit": "%"},
      {"measurement": "Purity %", "setting": "[1]; T = 5° C., time 3 (months)", "value": 100.1, "unit": "%"},
      {"measurement": "Purity %", "setting": "[1]; T = 5° C., time 6 (months)", "value": 100.3, "unit": "%"},
      {"measurement": "Purity %", "setting": "[1]; T = 5° C., time 9 (months)", "value": 99.6, "unit": "%"},
      {"measurement": "Purity %", "setting": "[1]; T = 5° C., time 12 (months)", "value": 99.6, "unit": "%"},
      {"measurement": "Purity %", "setting": "[1]; T = 5° C., time 18 (months)", "value": 100.8, "unit": "%"},
      {"measurement": "Purity %", "setting": "[1]; T = 5° C., time 24 (months)", "value": 98.8, "unit": "%"},
      {"measurement": "Purity %", "setting": "[1]; T = 5° C., time 36 (months)", "value": 99.8, "unit": "%"},
      {"measurement": "Purity %", "setting": "[1]; [4]", "value": 99.7, "unit": "%"},
      {"measurement": "Purity %", "setting": "[1]; [5]", "value": 100.9, "unit": "%"},
      {"measurement": "Purity %", "setting": "[1]; [6]", "value": 101.5, "unit": "%"},
      {"measurement": "Purity %", "setting": "[1]; [7]", "value": 99.3, "unit": "%"},
      {"measurement": "Purity %", "setting": "[1]; [8]", "value": 101.1, "unit": "%"},
      {"measurement": "Purity %", "setting": "[1]; [9]", "value": 100.5, "unit": "%"},
      {"measurement": "Purity %", "setting": "[1]; [10]", "value": 99.3, "unit": "%"},
      {"measurement": "Purity %", "setting": "[1]; [11]", "value": 99.5, "unit": "%"},
      {"measurement": "Purity %", "setting": "[1]; [12]", "value": 99.7, "unit": "%"},
      {"measurement": "Purity %", "setting": "[1]; [13]", "value": 100.0, "unit": "%"},
      {"measurement": "Purity %", "setting": "[1]; [14]", "value": 100.9, "unit": "%"},
      {"measurement": "Purity %", "setting": "[1]; [15]", "value": 100.6, "unit": "%"},
      {"measurement": "Purity %", "setting": "[1]; [16]", "value": 99.9, "unit": "%"},
      {"measurement": "Purity %", "setting": "[1]; [17]", "value": 99.7, "unit": "%"},
      {"measurement": "Purity %", "setting": "[1]; [18]", "value": 93.4, "unit": "%"},
      {"measurement": "Purity %", "setting": "[1]; [19]", "value": 81.2, "unit": "%"},
      {"measurement": "Stability (in words)", "setting": "[1]; condition d): 40° C. and 75% RH", "value": "strong instability"},
      {"measurement": "Stability (in words)", "setting": "[1]; conditions a)-c): 5° C., 25° C./60% RH, 30° C./65% RH", "value": "good stability"},
      {"measurement": "validity time period", "setting": "[1]; on the basis of the stability results, preserved at 2-8° C.", "value": 12, "unit": "months"},
      {"measurement": "Stability (in words)", "setting": "[1]; temperatures higher than 30° C.", "value": "unstable"},
      {"measurement": "% impurities", "setting": "[2]; T = 5° C., time 0", "value": 0.36, "unit": "%"},
      {"measurement": "% impurities", "setting": "[2]; T = 5° C., time 3 (months)", "value": 0.58, "unit": "%"},
      {"measurement": "% impurities", "setting": "[2]; T = 5° C., time 6 (months)", "value": 0.45, "unit": "%"},
      {"measurement": "% impurities", "setting": "[2]; T = 5° C., time 9 (months)", "value": 0.31, "unit": "%"},
      {"measurement": "% impurities", "setting": "[2]; T = 5° C., time 12 (months)", "value": 0.31, "unit": "%"},
      {"measurement": "% impurities", "setting": "[2]; T = 5° C., time 18 (months)", "value": 0.1, "unit": "%"},
      {"measurement": "% impurities", "setting": "[2]; T = 5° C., time 24 (months)", "value": 0.21, "unit": "%"},
      {"measurement": "% impurities", "setting": "[2]; T = 5° C., time 36 (months)", "value": 0.18, "unit": "%"},
      {"measurement": "% impurities", "setting": "[2]; [4]", "value": 0.36, "unit": "%"},
      {"measurement": "% impurities", "setting": "[2]; [5]", "value": 0.43, "unit": "%"},
      {"measurement": "% impurities", "setting": "[2]; [6]", "value": 0.87, "unit": "%"},
      {"measurement": "% impurities", "setting": "[2]; [7]", "value": 0.24, "unit": "%"},
      {"measurement": "% impurities", "setting": "[2]; [8]", "value": 0.34, "unit": "%"},
      {"measurement": "% impurities", "setting": "[2]; [9]", "value": 0.13, "unit": "%"},
      {"measurement": "% impurities", "setting": "[2]; [10]", "value": 0.28, "unit": "%"},
      {"measurement": "% impurities", "setting": "[2]; [11]", "value": 0.30, "unit": "%"},
      {"measurement": "% impurities", "setting": "[2]; [12]", "value": 0.36, "unit": "%"},
      {"measurement": "% impurities", "setting": "[2]; [13]", "value": 0.44, "unit": "%"},
      {"measurement": "% impurities", "setting": "[2]; [14]", "value": 0.52, "unit": "%"},
      {"measurement": "% impurities", "setting": "[2]; [15]", "value": 0.12, "unit": "%"},
      {"measurement": "% impurities", "setting": "[2]; [16]", "value": 0.76, "unit": "%"},
      {"measurement": "% impurities", "setting": "[2]; [17]", "value": 0.36, "unit": "%"},
      {"measurement": "% impurities", "setting": "[2]; [18]", "value": 6.99, "unit": "%"},
      {"measurement": "% impurities", "setting": "[2]; [19]", "value": 17.31, "unit": "%"},
      {"measurement": "Impurities (in words)", "setting": "[2]; condition d): 40° C./75% RH", "value": "unacceptable percentage of impurities"},
      {"measurement": "BTG 1640 free base concentration in plasma", "setting": "[3]; 2 minutes", "value": 0.7402, "unit": "µg/mL"},
      {"measurement": "BTG 1640 free base concentration in plasma", "setting": "[3]; 5 minutes", "value": 1.4242, "unit": "µg/mL"},
      {"measurement": "BTG 1640 free base concentration in plasma", "setting": "[3]; 30 minutes", "value": 0.2354, "unit": "µg/mL"},
      {"measurement": "BTG 1640 free base concentration in plasma", "setting": "[3]; 90 minutes", "value": 0.1184, "unit": "µg/mL"},
      {"measurement": "BTG 1640 free base concentration in plasma", "setting": "[3]; 300 minutes", "value": 0, "unit": "µg/mL"},
      {"measurement": "Clinical signs", "setting": "female CD-1 mice", "value": "Lethargy, ataxia, aggressiveness and vocalization"},
      {"measurement": "Histopathological examination of kidneys", "setting": "female CD-1 mice", "value": "small foci of acute tubular necrosis in the cortex, balloon degeneration of the epithelium and dilatation of convoluted tubules"},
      {"measurement": "Lethality", "setting": "female CD-1 mice; 14 days observation", "value": "lethal in two animals out of three"}
    ]}
  ]
}
